In the assay the test system is P388 leukemia ip, CD2F1 mice, survival T/C. In words: NCI In Vivo Anticancer Drug Screen. Data for tumor model P388 Leukemia (intraperitoneal) in CD2F1 (CDF1) mice. Particulars: endpoint: median survival time, higher = longer survival. In short, it runs like this: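 Mice carrying the transplanted tumor received test compound or vehicle. Survival was recorded in each group, and the value is the treated-group measurement divided by that of the vehicle-treated control group.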

Where [1] appears, read: dose: 50.0 mg/kg/injection, schedule: Q01DX009 (ip), vehicle: saline with Tween-80.
[2] abbreviates: dose: 50.0 mg/kg/injection, schedule: Q01DX009 (ip), vehicle: saline.
The mark [3] stands for this setting: dose: 100.0 mg/kg/injection, schedule: Q01DX009 (ip), vehicle: saline with Tween-80.
[4] abbreviates: dose: 50.0 mg/kg/injection, schedule: Q04DX003 (ip), vehicle: saline.
Where [5] appears, read: dose: 100.0 mg/kg/injection, schedule: Q04DX003 (ip), vehicle: saline.
Setting [6] is: dose: 400.0 mg/kg/injection, schedule: Q04DX003 (ip), vehicle: saline.
The mark [7] stands for this setting: dose: 50.0 mg/kg/injection, schedule: Q01DX005 (ip), vehicle: saline with Tween-80.
Setting [8] is: dose: 12.5 mg/kg/injection, schedule: Q01DX009 (ip), vehicle: saline.
Setting [9] is: dose: 50.0 mg/kg/injection, schedule: Q01DX009 (ip), vehicle: Klucel (hydroxypropylcellulose) (HPC).
The mark [10] stands for this setting: dose: 12.5 mg/kg/injection, schedule: Q01DX009 (ip), vehicle: Klucel (hydroxypropylcellulose) (HPC).
Setting [11] is: dose: 25.0 mg/kg/injection, schedule: Q01DX009 (ip), vehicle: Klucel (hydroxypropylcellulose) (HPC).
The mark [12] stands for this setting: dose: 50.0 mg/kg/injection, schedule: Q01DX005 (ip), vehicle: saline.
Where [13] appears, read: dose: 60.0 mg/kg/injection, schedule: Q01DX005 (ip), vehicle: Klucel (hydroxypropylcellulose) (HPC).
Where [14] appears, read: dose: 120.0 mg/kg/injection, schedule: Q01DX005 (ip), vehicle: Klucel (hydroxypropylcellulose) (HPC).
The mark [15] stands for this setting: dose: 240.0 mg/kg/injection, schedule: Q01DX005 (ip), vehicle: Klucel (hydroxypropylcellulose) (HPC).

Values joined by “and” are separate entries in the source; they are usually repeats but may differ in a detail not shown here. Equal entries are not always repeated. Inconclusive results and toxic doses are left out.

With `COc1cc2c(cc1OC)C1C(O)C(OC)C=C3CCN(C2)C31` (centres undefined), the T/C is, setting by setting: (dose: 25.0 mg/kg/injection, schedule: Q01DX009 (ip), vehicle: saline with Tween-80) 114 % of control; under setting [1], 114 % of control; under setting [2], 93 % of control; under setting [3], 118 % of control; (dose: 100.0 mg/kg/injection, schedule: Q01DX009 (ip), vehicle: saline) 119 % of control; (dose: 200.0 mg/kg/injection, schedule: Q01DX009 (ip), vehicle: saline) 102 % of control.

Turning to `COc1ccc2cc(N3CCCC3)ccc2c1`, the T/C (dose: 25.0 mg/kg/injection, schedule: Q04DX003 (ip), vehicle: saline) was 105 % of control; the T/C under setting [4] is 96 % of control; the T/C under setting [5] is 100 % of control and 104 % of control; the T/C under setting [6] was 107 % of control.

`COc1ccc(OC)c2c(Cl)ccnc12`: the T/C (dose: 12.5 mg/kg/injection, schedule: Q01DX005 (ip), vehicle: saline with Tween-80) was 99 % of control; the T/C (dose: 25.0 mg/kg/injection, schedule: Q01DX005 (ip), vehicle: saline with Tween-80) is 103 % of control; the T/C under setting [7] is 97 % of control.

`CC(=O)Nc1ccc(C(c2c(O)cc(C)[nH]c2=O)c2c(O)cc(C)[nH]c2=O)cc1`: the T/C runs as follows: under setting [1], 104 % of control; under setting [3], 112 % of control; (dose: 200.0 mg/kg/injection, schedule: Q01DX009 (ip), vehicle: saline with Tween-80) 112 % of control.

Regarding `CC1CN1P(=O)(OCCC#N)N1CC1C` (centres undefined), the T/C runs as follows: (dose: 25.0 mg/kg/injection, schedule: Q01DX009 (ip), vehicle: other) 104 % of control; (dose: 44.0 mg/kg/injection, schedule: Q04DX003 (ip), vehicle: other) 118 % of control; (dose: 50.0 mg/kg/injection, schedule: Q01DX009 (ip), vehicle: other) 110 % of control; (dose: 66.0 mg/kg/injection, schedule: Q04DX003 (ip), vehicle: other) 118 % of control; (dose: 100.0 mg/kg/injection, schedule: Q01DX009 (ip), vehicle: other) 165 % of control and 177 % of control; (dose: 150.0 mg/kg/injection, schedule: Q04DX003 (ip), vehicle: other) 163 % of control.

For the compound `O=C1CCC2ON=C(Br)C12` (centres undefined), the T/C is, setting by setting: (dose: 20.0 mg/kg/injection, schedule: Q01DX005 (ip), vehicle: distilled water + Tween-80) 110 % of control; (dose: 40.0 mg/kg/injection, schedule: Q01DX005 (ip), vehicle: distilled water + Tween-80) 112 % of control; (dose: 80.0 mg/kg/injection, schedule: Q01DX005 (ip), vehicle: distilled water + Tween-80) 112 % of control.

As to `COC(=O)/C=C1/Nc2ccccc2SC1C(=O)OC` (centres undefined), the T/C is 104 % of control under setting [7]; 99 % of control (dose: 100.0 mg/kg/injection, schedule: Q01DX005 (ip), vehicle: saline with Tween-80); 100 % of control (dose: 200.0 mg/kg/injection, schedule: Q01DX005 (ip), vehicle: saline with Tween-80).

For the compound `O=C1c2cc3cc4ccccc4cc3cc2C(=O)c2c(O)ccc(O)c21`, the T/C was 90 % of control (dose: 50.0 mg/kg/injection, schedule: Q04DX002 (ip), vehicle: saline with Tween-80); 91 % of control (dose: 100.0 mg/kg/injection, schedule: Q04DX002 (ip), vehicle: saline with Tween-80); 99 % of control (dose: 200.0 mg/kg/injection, schedule: Q04DX002 (ip), vehicle: saline with Tween-80).

Take `C1=CC2CCC1C1CSCC21` (centres undefined): the T/C under setting [8] is 98 % of control; the T/C (dose: 25.0 mg/kg/injection, schedule: Q01DX009 (ip), vehicle: saline) is 100 % of control; the T/C under setting [2] was 87 % of control and 92 % of control.

`COc1ccc(C(=O)c2ccccc2)cc1`: the T/C by setting is: under setting [9], 105 % of control; (dose: 100.0 mg/kg/injection, schedule: Q01DX009 (ip), vehicle: Klucel (hydroxypropylcellulose) (HPC)) 108 % of control; (dose: 200.0 mg/kg/injection, schedule: Q01DX009 (ip), vehicle: Klucel (hydroxypropylcellulose) (HPC)) 102 % of control; (dose: 400.0 mg/kg/injection, schedule: Q01DX009 (ip), vehicle: Klucel (hydroxypropylcellulose) (HPC)) 98 % of control.

Regarding `C=CCNc1ccc(C)cc1`, the T/C was 116 % of control (dose: 33.0 mg/kg/injection, schedule: Q01DX009 (ip), vehicle: saline with Tween-80); 116 % of control under setting [1]; 100 % of control (dose: 100.0 mg/kg/injection, schedule: Q04DX003 (ip), vehicle: saline with Tween-80); 122 % of control (dose: 200.0 mg/kg/injection, schedule: Q04DX003 (ip), vehicle: saline with Tween-80); 90 % of control (dose: 400.0 mg/kg/injection, schedule: Q04DX003 (ip), vehicle: saline with Tween-80).

For `ClC1CCC[N-]C1.ClC1CCC[N-]C1.[Cl][Pt+2][Cl]` (centres undefined), the T/C is, setting by setting: (dose: 0.78 mg/kg/injection, schedule: Q01DX009 (ip), vehicle: saline) 97 % of control; (dose: 1.56 mg/kg/injection, schedule: Q01DX009 (ip), vehicle: saline) 97 % of control; (dose: 3.13 mg/kg/injection, schedule: Q01DX009 (ip), vehicle: saline) 101 % of control; (dose: 6.25 mg/kg/injection, schedule: Q01DX009 (ip), vehicle: saline) 96 % of control; under setting [10], 118 % of control and 123 % of control; under setting [8], 108 % of control. In addition, the T/C is, setting by setting: under setting [11], 121 % of control; under setting [9], 101 % of control and 122 % of control.

In the case of `O=C(c1ccc(Br)cc1)c1ccc(Br)cc1`, the T/C (dose: 10.0 mg/kg/injection, schedule: Q01DX009 (ip), vehicle: other) was 100 % of control; the T/C (dose: 20.0 mg/kg/injection, schedule: Q01DX009 (ip), vehicle: other) is 105 % of control; the T/C (dose: 40.0 mg/kg/injection, schedule: Q01DX009 (ip), vehicle: other) was 92 % of control; the T/C under setting [4] was 99 % of control; the T/C (dose: 80.0 mg/kg/injection, schedule: Q01DX009 (ip), vehicle: other) is 92 % of control; the T/C under setting [5] is 93 % of control. The T/C (dose: 160.0 mg/kg/injection, schedule: Q01DX009 (ip), vehicle: other) was 105 % of control; the T/C (dose: 200.0 mg/kg/injection, schedule: Q04DX003 (ip), vehicle: saline) was 94 % of control; the T/C (dose: 320.0 mg/kg/injection, schedule: Q01DX009 (ip), vehicle: other) was 100 % of control; the T/C under setting [6] was 95 % of control.

Turning to `CN1CCOC(N2CCOCC2)C(C)(C)C1` (centres undefined), the T/C is 92 % of control under setting [12]; 88 % of control (dose: 100.0 mg/kg/injection, schedule: Q01DX005 (ip), vehicle: saline); 100 % of control (dose: 200.0 mg/kg/injection, schedule: Q01DX005 (ip), vehicle: saline).

For `CCN(CC)C1=C(C)C(C(=O)OC)=C(C(=O)OC)C12c1ccccc1-c1ccccc12`, the T/C is 92 % of control under setting [13], 92 % of control under setting [14] and 86 % of control under setting [15].

With `C=C(C)C1Cc2c(cc(OC)c3c(=O)c4cccc(O)c4oc23)O1` (centres undefined), the T/C is 104 % of control (dose: 2.5 mg/kg/injection, schedule: Q01DX009 (ip), vehicle: distilled water + alcohol); 101 % of control (dose: 5.0 mg/kg/injection, schedule: Q01DX009 (ip), vehicle: distilled water + alcohol); 99 % of control (dose: 10.0 mg/kg/injection, schedule: Q01DX009 (ip), vehicle: distilled water + alcohol).

As to `N#CSc1ccc2nc(NC(NC=O)C(Cl)(Cl)Cl)sc2c1` (centres undefined), the T/C runs as follows: (dose: 6.25 mg/kg/injection, schedule: Q01DX009 (ip), vehicle: Klucel (hydroxypropylcellulose) (HPC)) 105 % of control; under setting [10], 110 % of control; under setting [11], 103 % of control.

Regarding `N#Cc1c(F)cccc1N1CCSCC1`, the T/C by setting is: under setting [13], 109 % of control; under setting [14], 93 % of control; under setting [15], 89 % of control.

`N=C(N)COc1ccccc1`: the T/C is, setting by setting: (dose: 12.5 mg/kg/injection, schedule: Q01DX005 (ip), vehicle: saline) 95 % of control; (dose: 25.0 mg/kg/injection, schedule: Q01DX005 (ip), vehicle: saline) 95 % of control; under setting [12], 99 % of control and 101 % of control.

For the origin of these results see PubChem BioAssay AID330 (DTP/NCI, 2004).
